The values that follow come from US20220220373A1, “FLUORESCENT PROBES FOR MONOACYLGLYCEROL LIPASE (MAGL)” (Hoffmann-La Roche Inc., priority 2019, published 2022).

Molecules are shown by their SMILES.

The assay concerns the target T1, MAGL (Homo sapiens, UniProt Q99685).
T1 sequence (Q99685 1-303): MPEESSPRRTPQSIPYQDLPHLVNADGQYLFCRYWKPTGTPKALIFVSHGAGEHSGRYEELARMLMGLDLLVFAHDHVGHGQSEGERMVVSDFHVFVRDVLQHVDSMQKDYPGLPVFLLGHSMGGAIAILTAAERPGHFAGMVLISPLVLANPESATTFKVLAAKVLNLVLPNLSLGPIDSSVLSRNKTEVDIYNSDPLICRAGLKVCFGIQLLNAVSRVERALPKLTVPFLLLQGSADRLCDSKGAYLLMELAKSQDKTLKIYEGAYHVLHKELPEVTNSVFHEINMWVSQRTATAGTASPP
Nature of the assay: 2-AG assay (MAGL inhibitory activity, hydrolysis of 2-arachidonoylglycerol followed by mass spectrometry). The settings on record: 50 pM MAGL, 8 μM 2-arachidonoylglycerol, 15 min pre-incubation, 30 min incubation at RT. The format is biochemical. How it is done:
Compounds were profiled for MAGL inhibitory activity by determining the enzymatic activity by following the hydrolysis of the natural substrate 2-arachidonoylglycerol (2-AG) resulting in arachidonic acid, which can be followed by mass spectrometry. This assay is hereinafter abbreviated “2-AG assay”.
The 2-AG assay was carried out in 384 well assay plates (PP, Greiner Cat#784201) in a total volume of 20 μL. Compound dilutions were made in 100% DMSO (VWR Chemicals 23500.297) in a polypropylene plate in 3-fold dilution steps to give a final concentration range in the assay from 12.5 μM to 0.8 pM. […] compound dilutions (100% DMSO) were added to 9 μL MAGL in assay buffer (50 mM TRIS (GIBCO, 15567-027), 1 mM EDTA (Fluka, 03690-100 mL), 0.01% (v/v) Tween. After shaking, the plate was incubated for 15 min at RT. To start the reaction, 10 μL 2-arachidonoylglycerol in assay buffer was added. The final concentrations in the assay was 50 pM MAGL and 8 μM 2-arachidonoylglyerol. After shaking and 30 min incubation at RT, the reaction was quenched by the addition of […] of ACN containing 4 μM of d8-arachidonic acid. The amount of arachidonic acid was traced by an online SPE system (Agilent Rapidfire) coupled to a triple quadrupole mass spectrometer (Agilent 6460). A C18 SPE cartridge (G9205A) was used in an ACN/water liquid setup. The mass spectrometer was operated in negative electrospray mode following the mass transitions 303.1→259.1 for arachidonic acid and 311.1→267.0 for d8-arachidonic acid. The activity of the compounds was calculated based on the ratio of intensities [arachidonic acid/d8-arachidonic acid].
Usually IC50 stands for the concentration that inhibits the measured activity by half. `NCCOCCOCCOCCC(=O)NCCOc1cccc([C@H](c2ccccc2)C2CCN(C(=O)N3CC[C@@H]4OCC(=O)N[C@@H]4C3)CC2)c1` (single isomer, unassigned) [Example 20, N-[2-[3-[(S or R)-[1-1(4aR,8aS)-3-Oxo-4,4a,5,7,8,8a-hexahydropyrido[4,3-b]11,4]oxazine-6-carbonyl]-4-piperidyfl-phenyl-methyl]phenoxy]ethyl]-3-[2-[2-(2-aminoethoxy)ethoxy]ethoxy]propanamide] returned an IC50 of 11.4 nM. For `NCCOCCOCCC(=O)NCCOc1cccc(C(c2ccccc2)C2CCN(C(=O)N3CC[C@@H]4OCC(=O)N[C@@H]4C3)CC2)c1` (single isomer, unassigned) [Example 11, N-[2-[3-[(S or R)-[1-[(4aR,8aS)-3-Oxo-4,4a,5,7,8,8a-hexahydropyrido[4,3-b][1,4]oxazine-6-carbonyl]-4-piperidyl]-phenyl-methyl]phenoxy]ethyl]-3-[2-(2-aminoethoxy)ethoxy]propanamide], half-maximal inhibition (IC50) was put at 2930 nM. The figure for `O=C(CCOCCNc1ccc([N+](=O)[O-])c2nonc12)NCCOc1cccc(C(c2ccccc2)C2CCN(C(=O)N3CCC4OCC(=O)NC4C3)CC2)c1` (single isomer, unassigned) [Example 18, N-[2-[3-[(R or S)-[1-1(4aR,8aS)-3-Oxo-4,4a,5,7,8,8a-hexahydropyrido[4,3-b][1,4]oxazine-6-carbonyl]-4-piperidyl]-phenyl-methyl]phenoxy]ethyl]-3-12-[(4-nitro-2,1,3-benzoxadiazol-7-yl)amino]ethoxy]propanamide] is 7.2 nM; for `O=C(CCOCCOCCNc1ccc([N+](=O)[O-])c2nonc12)NCCOc1cccc(C(c2ccccc2)C2CCN(C(=O)N3CC[C@@H]4OCC(=O)N[C@@H]4C3)CC2)c1` (single isomer, unassigned) [Example 12, N-[2-[3-[(S or R)-[1-[(4aR,8aS)-3-Oxo-4,4a,5,7,8,8a-hexahydropyrido[4,3-b][1,4]oxazine-6-carbonyl]-4-piperidyl]-phenyl-methyl]phenoxy]ethyl]-3-[2-[2-[(4-nitro-2,1,3-benzoxadiazol-7-yl)amino]ethoxy]ethoxy]propanamide] it is 0.5 nM. The figure for `CC(C)(C)OC(=O)NCCOc1cccc(C(c2ccccc2)C2CCN(C(=O)N3CC[C@@H]4OCC(=O)N[C@@H]4C3)CC2)c1` (single isomer, unassigned) [Example 4, tert-Butyl N-[2-[3-[(R or S)-[1-[(4aR,8aS)-3-oxo-4,4a,5,7,8,8a-hexahydropyrido[4,3-b][1,4]oxazine-6-carbonyl]-4-piperidyl]-phenyl-methyl]phenoxy]ethyl]carbamate] is 0.3 nM; for `CC(C)(C)OC(=O)NCCOc1cccc(C(=C2CCN(C(=O)N3CC[C@@H]4OCC(=O)N[C@@H]4C3)CC2)c2ccccc2)c1` [Example 23, tert-Butyl (2-(3-((1-((4aR,8aS)-3-oxooctahydro-2H-pyrido[4,3-b][1,4]oxazine-6-carbonyl)piperidin-4-ylidene)(phenyl)methyl)phenoxy)ethyl)carbamate] it is 5.8 nM. Then `NCCOc1cccc(C(c2ccccc2)C2CCN(C(=O)N3CC[C@@H]4OCC(=O)N[C@@H]4C3)CC2)c1` (single isomer, unassigned) [Example 7, (4aR,8aS)-6-[4-[(R or S)-[3-(2-Aminoethoxy)phenyl]-phenyl-methyl]piperidine-1-carbonyl]-4,4a,5,7,8,8a-hexahydropyrido[4,3-b][1,4]oxazin-3-one], with 48.5 nM; and `O=C(CCOCCOCCNc1ccc([N+](=O)[O-])c2nonc12)NCCOc1cccc(C(c2ccccc2)C2CCN(C(=O)N3CC[C@@H]4OCC(=O)N[C@@H]4C3)CC2)c1` (single isomer, unassigned) [Example 13, N-[2-[3-[(R or S)-[1-[(4aR,8aS)-3-Oxo-4,4a,5,7,8,8a-hexahydropyrido[4,3-b][1,4]oxazine-6-carbonyl]-4-piperidyl]phenyl-methyl]phenoxy]ethyl]-3-[2-[2-[(4-nitro-2,1,3-benzoxadiazol-7-yl)amino]ethoxy]ethoxy]propanamide], with 1.6 nM; and `CC(C)(C)OC(=O)NCCOc1ccc(C(=C2CCN(C(=O)N3CC[C@@H]4OCC(=O)N[C@@H]4C3)CC2)c2ccccc2)cc1` [Example 25, tert-Butyl (2-(4-((1-((4aR,8aS)-3-oxooctahydro-2H-pyrido[4,3-b][1,4]oxazine-6-carbonyl)piperidin-4-ylidene)(phenyl)methyl)phenoxy)ethyl)carbamate], with 13 nM. Molecule `NCCOCCC(=O)NCCOc1cccc([C@@H](c2ccccc2)C2CCN(C(=O)N3CC[C@@H]4OCC(=O)N[C@@H]4C3)CC2)c1` (single isomer, unassigned) [Example 16, N-[2-[3-[(R or S)-[1-1(4aR,8aS)-3-Oxo-4,4a,5,7,8,8a-hexahydropyrido[4,3-b][1,4]oxazine-6-carbonyl]-4-piperidyl]phenyl-methyl]phenoxy]ethyl]-3-(2-aminoethoxy)propanamide] displayed an IC50 of 18.1 nM. The figure for `NCCOCCOCCC(=O)NCCOc1cccc(C(c2ccccc2)C2CCN(C(=O)N3CC[C@@H]4OCC(=O)N[C@@H]4C3)CC2)c1` (single isomer, unassigned) [Example 10, N-[2-[3-[(R or S)-[1-[(4aR,8aS)-3-Oxo-4,4a,5,7,8,8a-hexahydropyrido[4,3-b][1,4]oxazine-6-carbonyl]-4-piperidyl]-phenyl-methyl]phenoxy]ethyl]-3-[2-(2-aminoethoxy)ethoxy]propanamide] is 7.8 nM. Then `O=C(CCOCCOCCOCCNc1ccc([N+](=O)[O-])c2nonc12)NCCOc1cccc([C@H](c2ccccc2)C2CCN(C(=O)N3CC[C@@H]4OCC(=O)N[C@@H]4C3)CC2)c1` (single isomer, unassigned) [Example 22, N-[2-[3-[(S or R)-11-1(4aR,8aS)-3-oxo-4,4a,5,7,8,8a-hexahydropyrido[4,3-b][1,4]oxazine-6-carbonyl]-4-piperidyl]-phenyl-methyl]phenoxy]ethyl]-3-[2-[2-[2-[(4-nitro-2,1,3-benzoxadiazol-7-yl)amino]ethoxy]ethoxy]ethoxy]propanamide], with 0.4 nM; and `CC(C)(C)OC(=O)NCCOc1cccc(C(c2ccccc2)C2CCN(C(=O)N3CC[C@@H]4OCC(=O)N[C@@H]4C3)CC2)c1` (single isomer, unassigned) [Example 5, tert-Butyl N-[2-[3-[(S or R)-[1-[(4aR,8aS)-3-oxo-4,4a,5,7,8,8a-hexahydropyrido[4,3-b][1,4]oxazine-6-carbonyl]-4-piperidyl]-phenyl-methyl]phenoxy]ethyl]carbamate], with 0.2 nM. The figure for `CC(C)(C)OC(=O)NCCOCCOCCC(=O)NCCOc1cccc(C(c2ccccc2)C2CCN(C(=O)N3CC[C@@H]4OCC(=O)N[C@@H]4C3)CC2)c1` (single isomer, unassigned) [Example 9, tert-Butyl N-[2-[2-[3-[2-[3-[(R or S)-[1-[(4aR,8aS)-3-oxo-4,4a,5,7,8,8a-hexahydropyrido[4,3-b][1,4]oxazine-6-carbonyl]-4-piperidyl]-phenyl-methyl]phenoxy]ethylamino]-3-oxo-propoxy]ethoxy]ethyl]carbamate] is 2.6 nM.
